# Measured values from patent US7858621B2 (Amorepacific Corporation, priority 2006, dated 2010).
# pIC50: −log10 of the molar value.
# Target: T1, vanilloid receptor (Rattus norvegicus, UniProt O35433)
# T1 construct: DRG nerve cells from the primary culture of 2 days were equilibrated; endogenous in cells; host or cells: primary culture of dorsal root ganglion neurons from neonatal SD rats
# Experiment: 45Ca influx test in cultured neonatal rat DRG neurons, inhibition of capsaicin response
# Assay type: cell-based
# Conditions: neonatal rat DRG neurons, capsaicin 0.5 μM, 45Ca influx; read-out: Antagonist Calcium Uptake Test (IC50)
# Summary of the method: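 Neonatal SD rat DRG neurons, cultured 2 days with NGF (200 ng/ml) and Ara-C, were washed in HEPES (10 mM, pH 7.4)-buffered Ca/Mg-free HBSS. Test compound was added with capsaicin (final 0.5 μM) and 45Ca (10 μCi/ml) for 10 min at room temperature; 45Ca uptake counted by scintillation after SDS elution.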
# T1 sequence (O35433 whole entry): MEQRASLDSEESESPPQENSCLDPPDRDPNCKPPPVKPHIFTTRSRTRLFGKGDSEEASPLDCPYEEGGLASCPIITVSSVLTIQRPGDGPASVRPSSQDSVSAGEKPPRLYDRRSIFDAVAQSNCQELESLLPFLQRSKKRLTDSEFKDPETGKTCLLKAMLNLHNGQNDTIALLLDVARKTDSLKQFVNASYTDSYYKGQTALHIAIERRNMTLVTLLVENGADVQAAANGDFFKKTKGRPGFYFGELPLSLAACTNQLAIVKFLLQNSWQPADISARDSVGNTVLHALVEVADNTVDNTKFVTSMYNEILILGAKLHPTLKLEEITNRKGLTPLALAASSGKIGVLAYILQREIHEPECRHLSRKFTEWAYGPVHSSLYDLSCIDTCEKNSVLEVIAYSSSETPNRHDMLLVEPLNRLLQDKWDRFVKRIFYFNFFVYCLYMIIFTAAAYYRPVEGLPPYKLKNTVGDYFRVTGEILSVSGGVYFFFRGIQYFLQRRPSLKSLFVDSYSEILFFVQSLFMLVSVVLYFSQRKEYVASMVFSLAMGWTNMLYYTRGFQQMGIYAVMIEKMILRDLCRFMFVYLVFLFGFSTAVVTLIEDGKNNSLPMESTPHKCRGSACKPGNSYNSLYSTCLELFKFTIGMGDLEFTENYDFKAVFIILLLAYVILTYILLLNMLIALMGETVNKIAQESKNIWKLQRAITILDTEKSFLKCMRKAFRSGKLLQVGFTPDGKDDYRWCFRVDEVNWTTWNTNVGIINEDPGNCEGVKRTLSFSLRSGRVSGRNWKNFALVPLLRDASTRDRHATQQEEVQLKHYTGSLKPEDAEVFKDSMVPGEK
row,SMILES,pIC50
1,"CS(=O)(=O)Nc1c(F)cc(CNC(=O)/C=C/c2ccc(C(F)(F)F)nc2N2CCOCC2)cc1C#N [Example 103, N-(3-Cyano-5-fluoro-4-methanesulfonylamino-benzyl)-3-(2-morpholin-4-yl-6-trifluoromethyl-pyridin-3-yl)-acrylamide]",5.23
2,"CS(=O)(=O)Nc1ccc(CNC(=O)/C=C/c2ccc(C(F)(F)F)nc2Nc2ccccc2)cc1F [Example 127, N-(3-Fluoro-4-methanesulfonylamino-benzyl)-3-(2-phenylamino-6-trifluoromethyl-pyridin-3-yl)-acrylamide]",6.49
3,"CCC(C)c1nc(C(F)(F)F)ccc1/C=C/C(=O)NCc1cc(F)c(NS(C)(=O)=O)c(F)c1 (stereo not shown) [Example 235, N-(3,5-Difluoro-4-methanesulfonylamino-benzyl)-3-(2-sec-butyl-6-trifluoromethyl-pyridin-3-yl)-acrylamide]",6.72
4,"CCCCc1nc(C(F)(F)F)ccc1C#CC(=O)N[C@H](C)c1cc(F)c(NS(C)(=O)=O)c(F)c1 [Example 262, 3-(2-Butyl-6-trifluoromethyl-pyridin-3-yl)-propynoic acid [1-(3,5-difluoro-4-methanesulfonylamino-phenyl)-ethyl]-amide]",6.82
5,"C#Cc1cc(CNC(=O)/C=C/c2cnc(C(C)(C)C)cc2C(F)(F)F)cc(F)c1NS(C)(=O)=O [Example 18, 3-(6-tert-Butyl-4-trifluoromethyl-pyridin-3-yl)-N-(3-ethynyl-5-fluoro-4-methanesulfonylamino-benzyl)-acrylamide]",6.89
6,"CS(=O)(=O)Nc1ccc(CNC(=O)/C=C/c2ccc(C(F)(F)F)nc2N2CCCC2)cc1F [Example 55, N-(3-Fluoro-4-methanesulfonylamino-benzyl)-3-(2-pyrrolidin-1-yl-6-trifluoromethyl-pyridin-3-yl)-acrylamide]",5.85
7,"CCC(C)Nc1nc(C(F)(F)F)ccc1/C=C/C(=O)NCc1cc(F)c(NS(C)(=O)=O)c(F)c1 (stereo not shown) [Example 129, 3-(2-sec-Butylamino-6-trifluoromethyl-pyridin-3-yl)-N-(3,5-difluoro-4-methanesulfonylamino-benzyl)-acrylamide]",7.33
8,"C#Cc1cc(CNC(=O)/C=C/c2ccc(C(F)(F)F)nc2-c2ccccc2)cc(F)c1NS(C)(=O)=O [Example 107, N-(3-Ethynyl-5-fluoro-4-methanesulfonylamino-benzyl)-3-(2-phenyl-6-trifluoromethyl-pyridin-3-yl)-acrylamide]",6.29
9,"CCCCc1nc(C(F)(F)F)ccc1C#CC(=O)NCc1ccc(NS(C)(=O)=O)cc1 [Example 266, 3-(2-Butyl-6-trifluoromethyl-pyridin-3-yl)-propynoic acid 4-methanesulfonylamino-benzylamide]",5.85
10,C#Cc1cc(CNC(=O)/C=C/c2ccc(C(F)(F)F)nc2-c2ccc(F)nc2)cc(F)c1NS(C)(=O)=O [Example 135],5.64
11,"C#Cc1cc(CNC(=O)/C=C/c2ccc(C(F)(F)F)nc2OCc2ccccc2)cc(F)c1NS(C)(=O)=O [Example 96, N-(3-Ethynyl-5-fluoro-4-methanesulfonylamino-benzyl)-3-(2-benzyloxy 6-trifluoromethyl-pyridin-3-yl)-acrylamide]",5.77
12,"COCCCc1nc(C(F)(F)F)ccc1/C=C/C(=O)NCc1ccc(NS(C)(=O)=O)c(F)c1 [Example 156, N-(3-Fluoro-4-methanesulfonylamino-benzyl)-3-[2-(3-methoxy-propyl)-6-trifluoromethyl-pyridin-3-yl]-acrylamide]",5.66
13,CC(C)(C)c1ccc(/C=C/C(=O)NCc2ccc(NS(C)(=O)=O)c(F)c2)cn1 [Examples 1],5.89
14,"C#Cc1cc(CNC(=O)/C=C/c2ccc(C(F)(F)F)nc2N2CCN(C)CC2)cc(F)c1NS(C)(=O)=O [Example 64, N-(3-Ethynyl-5-fluoro-4-methanesulfonylamino-benzyl)-3-[2-(4-methyl-piperazin-1-yl)-6-trifluoromethyl-pyridin-3-yl]-acrylamide]",5.19
15,"Cc1nc(C(F)(F)F)ccc1/C=C/C(=O)NCc1ccc(NS(C)(=O)=O)c(F)c1 [Example 69, N-(3-Fluoro-4-methanesulfonylaminobenzyl)-3-(2-methyl-6-trifluoromethylpyridin-3-yl)acrylamide]",5.49
16,"C#Cc1cc(CNC(=O)/C=C/c2ccc(C(F)(F)F)nc2CCc2ccccc2)cc(F)c1NS(C)(=O)=O [Example 142, N-(3-Ethynyl-5-fluoro-4-methanesulfonylamino-benzyl)-3-(2-phenethyl-6-trifluoromethyl-pyridin-3-yl)-acrylamide]",7.46
17,"C#Cc1cc(CNC(=O)/C=C/c2cnc(OC)cc2C(F)(F)F)cc(F)c1NS(C)(=O)=O [Example 41, N-(3-Ethynyl-5-fluoro-4-methanesulfonylaminobenzyl)-3-(6-methoxy-4-trifluoromethylpyridin-3-yl)acrylamide]",5.80
18,"CCCS(=O)(=O)c1nc(C(F)(F)F)ccc1C=CC(=O)NCc1ccc(NS(C)(=O)=O)c(C)c1 [Example 216, N-(4-Methanesulfonylamino-3-methyl-benzyl)-3-[2-(propane-1-sulfonyl)-6-trifluoromethyl-pyridin-3-yl]-acrylamide]",5.70
19,"CCCCc1nc(C(F)(F)F)ccc1/C=C/C(=O)NCc1cc(F)c(NS(C)(=O)=O)c(F)c1 [Example 205, 3-(2-Butyl-6-trifluoromethyl-pyridin-3-yl)-N-(3,5-difluoro-4-methanesulfonylamino-benzyl)-acrylamide]",7.07
20,"C#Cc1cc(CNC(=O)/C=C/c2ccc(C(C)(C)C)nc2Cl)cc(F)c1NS(C)(=O)=O [Example 51, 3-(6-tert-Butyl-2-chloro-pyridin-3-yl)-N-(3-ethynyl-5-fluoro-4-methanesulfonylamino-benzyl)-acrylamide]",6.85
21,"Cc1cc(CNC(=O)/C=C/c2ccc(C(F)(F)F)nc2NC(C)C)ccc1NS(C)(=O)=O [Example 219, 3-(2-Isopropylamino-6-trifluoromethyl-pyridin-3-yl)-N-(4-methanesulfonylamino-3-methyl-benzyl)-acrylamide]",7.14
22,"CCCCOc1nc(C(F)(F)F)ccc1/C=C/C(=O)NCc1ccc(NS(C)(=O)=O)c(F)c1 [Example 63, 3-(2-Butoxy-6-trifluoromethyl-pyridin-3-yl)-N-(3-fluoro-4-methanesulfonylamino-benzyl)-acrylamide]",6.25
23,"CS(=O)(=O)Nc1c(F)cc(CNC(=O)/C=C/c2ccc(C(F)(F)F)nc2N2CCCCC2)cc1F [Example 200, N-(4-Methanesulfonylamino-3,5-difluoro-benzyl)-3-(2-piperid-1-yl-6-trifluoromethyl-pyridin-3-yl)-acrylamide]",6.24
24,"CC(C)Cc1nc(C(F)(F)F)ccc1/C=C/C(=O)N[C@H](C)c1ccc(NS(C)(=O)=O)c(F)c1 [Example 175, (R)—N-[1-(3-Fluoro-4-methanesulfonylamino-phenyl)-ethyl]-3-(2-isobutyl-6-trifluoromethyl-pyridin-3-yl)-acrylamide]",7.62
25,"CCCCCc1nc(C(F)(F)F)ccc1/C=C/C(=O)NCc1ccc(NS(C)(=O)=O)c(C)c1 [Example 198, N-(4-Methanesulfonylamino-3-methyl-benzyl)-3-(2-pentyl-6-trifluoromethyl)-pyridin-3-yl-acrylamide]",7.27
